Like-named read-outs stand apart in the source and are kept apart here.
Assays:
[1] = biological target: T1, PgaCDm (PgaC V227L PgaD N75D/K76E) (Escherichia coli, UniProt P75905, V227L); experiment: WGA-HRP dot blot of PNAG, densitometry; format: biochemical
T1 sequence (P75905 1-441 V227L): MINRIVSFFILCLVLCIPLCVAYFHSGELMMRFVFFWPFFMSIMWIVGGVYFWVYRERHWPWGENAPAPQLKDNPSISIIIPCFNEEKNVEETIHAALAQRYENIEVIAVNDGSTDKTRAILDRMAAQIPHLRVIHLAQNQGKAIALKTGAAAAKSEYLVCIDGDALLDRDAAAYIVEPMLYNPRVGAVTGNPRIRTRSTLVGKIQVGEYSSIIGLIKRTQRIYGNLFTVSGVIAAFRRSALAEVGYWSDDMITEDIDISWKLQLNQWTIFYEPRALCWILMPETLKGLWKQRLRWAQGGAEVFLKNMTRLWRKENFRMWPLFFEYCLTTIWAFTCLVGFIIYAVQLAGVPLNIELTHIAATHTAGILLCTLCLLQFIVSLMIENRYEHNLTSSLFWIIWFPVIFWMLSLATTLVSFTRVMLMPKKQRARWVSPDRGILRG
T1 sequence (P69432 1-137 N75D/K76E partner): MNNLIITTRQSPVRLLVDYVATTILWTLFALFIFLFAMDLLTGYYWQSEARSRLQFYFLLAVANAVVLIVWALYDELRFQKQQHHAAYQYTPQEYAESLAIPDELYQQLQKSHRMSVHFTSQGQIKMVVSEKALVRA

[2] = tested on: E. coli csrA::kanB pBAD-nahKm; experiment: microbe, parasite or virus in culture; design: species or system E. coli MG1655 csrA::kanB; settings: Escherichia coli, read-out: pBAD-nahKm [Ara] = 50 mg/L
[3] = tested on: E. coli csrA::kanB pBAD-nahK; experiment: microbe, parasite or virus in culture; design: species or system E. coli MG1655 csrA::kanB; settings: Escherichia coli, read-out: pBAD-nahK [Ara] = 0 mg/L
[4] = tested on: E. coli csrA::kanB pBAD-nahK; experiment: microbe, parasite or virus in culture; design: species or system E. coli MG1655 csrA::kanB; settings: Escherichia coli, read-out: pBAD-nahK [Ara] = 50 mg/L
[5] = tested on: E. coli csrA::kanB pBAD-nahK; experiment: microbe, parasite or virus in culture; design: species or system E. coli MG1655 csrA::kanB; settings: Escherichia coli, read-out: pBAD-nahK [Ara] = 50 mg/L, DTT
E. coli csrA::kanB = experiment: microbe, parasite or virus in culture; design: species or system E. coli MG1655 csrA::kanB; settings: Escherichia coli, read-out: csrA::kanB [Ara] = 0 mg/L

SMILES | IC50 [1] [µM] | IC50 [2] [µM] | IC50 [3] [µM] | IC50 [4] [µM] | other results
CC(=O)N[C@H]1[C@@H](OP(=O)(O)OP(=O)(O)OC[C@H]2O[C@@H](n3ccc(=O)[nH]c3=O)[C@H](O)[C@@H]2O)O[C@H](CF)[C@@H](O)[C@@H]1O [2-F, UDP-6-fluoroGlcNAc] | 150 ± 10 | – | – | – | –
CC(=O)NC1C(O)OC(CN=[N+]=[N-])C(O)C1O (centres unmarked) [1-N3, 6-azidoGlcNAc] | – | > 5000 | > 5000 | 2700 ± 400 | –
CC(=O)N[C@H]1[C@@H](OP(=O)(O)OP(=O)(O)OC[C@H]2O[C@@H](n3ccc(=O)[nH]c3=O)[C@H](O)[C@@H]2O)O[C@H](CN)[C@@H](O)[C@@H]1O [2-NH2, 6-amino derivative] | 480 ± 60 | – | – | – | –
CC(=O)NC1C(O)OC(CN)C(O)C1O (centres unmarked) [1-NH2, 6-aminoGlcNAc] | – | > 2000 | > 2000 | 150 ± 60 | –
CC(=O)N[C@H]1[C@@H](OP(=O)(O)OP(=O)(O)OC[C@H]2O[C@@H](n3ccc(=O)[nH]c3=O)[C@H](O)[C@@H]2O)O[C@H](CS)[C@@H](O)[C@@H]1O [2-SH, UDP-6-thioGlcNAc] | 60 ± 20 | – | – | – | –
CC(=O)NC1C(O)OC(CS)C(O)C1O (centres unmarked) [1-SH, 6-thioGlcNAc] | – | > 2000 | > 2000 | 130 | IC50 [5]: 64 ± 2 µM
CC(=O)N[C@H]1C(O)O[C@H](C)[C@@H](O)[C@@H]1O (mixture of isomers) [1-H, 6-deoxyGlcNAc] | – | 500 ± 100 | 330 ± 10 | 8 ± 2 | IC50 (E. coli csrA::kanB): 530 ± 30 µM
CC(=O)N[C@H]1[C@@H](OP(=O)(O)OP(=O)(O)OC[C@H]2O[C@@H](n3ccc(=O)[nH]c3=O)[C@H](O)[C@@H]2O)O[C@H](C)[C@@H](O)[C@@H]1O [2-H, UDP-6-deoxyGlcNAc] | 30 | – | – | – | –
CC(=O)N[C@H]1[C@@H](OP(=O)(O)OP(=O)(O)OC[C@H]2O[C@@H](n3ccc(=O)[nH]c3=O)[C@H](O)[C@@H]2O)O[C@H](CN=[N+]=[N-])[C@@H](O)[C@@H]1O [2-N3, 6-azido analogue] | > 10000 | – | – | – | –
CC(=O)N[C@H]1C(O)O[C@H](CF)[C@@H](O)[C@@H]1O (mixture of isomers) [1-F, 6-fluoroGlcNAc] | – | > 2000 | > 2000 | 13 ± 3 | –
O=c1ccn([C@@H]2O[C@H](COP(=O)(O)OP(=O)(O)O)[C@@H](O)[C@H]2O)c(=O)[nH]1 [UDP] | 2700 ± 900 | – | – | – | –
